Test results reported in patent US20140235774A1, “FLUORESCENT COMPOUND, METHOD FOR PRODUCING THE SAME, AND FLUORESCENT RESIN COMPOSITION” (Shin-Etsu Chemical Co., Ltd., priority 2013, published 2014).
In brackets after ≈: the same amount, converted by molar mass.

Columns and labels:
Type in all cases: physicochemical
[1] = Ultraviolet-visible absorption spectrum in solvent
Protocol: (§1) The ultraviolet-visible absorption spectrum and the fluorescent spectrum of Compound 1 were measured in ethanol. The longest absorption maximum wavelength was 359 nm, the molar absorbance coefficient was 6.50×10^4, and the maximum fluorescent wavelength was 410 nm (excitation wavelength: 359 nm).
(§2) The ultraviolet-visible absorption spectrum and the fluorescent spectrum of Compound 2 were measured in ethanol. The longest absorption maximum wavelength was 359 nm, the molar absorbance coefficient was 7.88×10^4, and the maximum fluorescent wavelength was 410 nm (excitation wavelength: 359 nm).
(§3) The ultraviolet-visible absorption spectrum and the fluorescent spectrum of Compound 3 were measured in tetrahydrofuran. The longest absorption maximum wavelength was 363 nm, the molar absorbance coefficient was 2.65×10^4, and the maximum fluorescent wavelength was 413 nm (excitation wavelength: 363 nm).
(§4) The ultraviolet-visible absorption spectrum and the fluorescent spectrum of Compound 4 were measured in tetrahydrofuran. The longest absorption maximum wavelength was 363 nm, the molar absorbance coefficient was 2.83×10^4, and the maximum fluorescent wavelength was 413 nm (excitation wavelength: 363 nm)

[2] = Solubility in transparent silicone resin SIM-360 base compound (portion-wise addition until transparent); details: for solubility in the SIM-360 base compound: room temperature, with stirring
Protocol: Into a glass vial, 10.1 mg of Compound 1 produced in Example 1 was weighed and added with a transparent silicone resin, the SIM-360 base compound (produced by Shin-Etsu Chemical Co., Ltd.) portion-wise at room temperature with stirring. Dissolution was determined when the solution turned transparent. The solubility was calculated to be 1 mmol/L. To this mixture, 10% by mass of a curing agent was added on the basis of the base compound and mixed. After defoaming, the mixture was heated at 150° C. for 30 minutes to be cured, giving a fluorescent silicone resin composition. It was possible to change the concentration of Compound 1 freely as long as the concentration was less than or equal to the above-described concentration.

[3] = Fluorescent spectrum in solvent
Protocol: as §1, §2, §3, §4

[4] = in ethanol, excitation wavelength 359 nm
[5] = in tetrahydrofuran, excitation wavelength 363 nm

Compound | longest absorption maximum wavelength ([1]; in ethanol) | molar absorbance coefficient ([1]; in ethanol) | solubility in the SIM-360 base compound [2] | maximum fluorescent wavelength [3, 4] | longest absorption maximum wavelength ([1]; in tetrahydrofuran) | molar absorbance coefficient ([1]; in tetrahydrofuran) | maximum fluorescent wavelength [3, 5] | solubility in the SIM-360 base compound (result in words) ([2]; measured as in Example 6)
Cc1ccc(N(c2ccc(C)cc2)c2ccc(-c3ccc(N(c4ccc(-c5ccc(N(c6ccc(C)cc6)c6ccc(C)cc6)cc5)cc4)c4cccc([Si](C)(O[Si](C)(C)C)O[Si](C)(C)C)c4)cc3)cc2)cc1 [Compound 1, N,N-bis[4′-(N′,N′-di-4-tolylamino)biphenyl-4-yl]-3-(1-trimethylsiloxy-1,3,3,3-tetramethyldisiloxan-1-yl)aniline] | 359 nm | 6.50×10^4 | 1000 µM (≈ 1010 µg/mL) | 410 nm | – | – | – | –
C[Si](C)(C)O[Si](C)(O[Si](C)(C)C)c1cccc(N(c2ccccc2)c2ccc(-c3ccc(N(c4ccccc4)c4ccc(-c5ccc(N(c6ccccc6)c6ccc(-c7ccc(N(c8ccccc8)c8cccc([Si](C)(O[Si](C)(C)C)O[Si](C)(C)C)c8)cc7)cc6)cc5)cc4)cc3)cc2)c1 [Compound 2, N,N′-bis[phenyl-3-(1-trimethylsoxy-1,3,3,3-tetramethyldisiloxan-1-yl)phenylaminobiphenyl-4′-yl]-N,N-diphenylbenzidine] | 359 nm | 7.88×10^4 | 500 µM (≈ 708 µg/mL) | 410 nm | – | – | – | –
C[Si](C)(C)O[Si](C)(O[Si](C)(C)C)c1cccc(N(c2ccc(-c3ccc(N(c4ccccc4)c4ccc(-c5ccc(N(c6ccccc6)c6ccccc6)cc5)cc4)cc3)cc2)c2ccc(-c3ccc(N(c4ccccc4)c4ccc(-c5ccc(N(c6ccccc6)c6ccccc6)cc5)cc4)cc3)cc2)c1 [Compound 3, N,N-bis[4′-(N′-phenyl-N′-4′-diphenylaminobiphenyl-4-yl)biphenyl-4-yl]-3-(1-trimethylsiloxy-1,3,3,3-tetramethyldisiloxan-1-yl)aniline] | – | – | 100 µM (≈ 144 µg/mL) | – | 363 nm | 2.65×10^4 | 413 nm | –
C[Si](C)(C)O[Si](C)(C)c1cccc(N(c2ccc(-c3ccc(N(c4ccccc4)c4ccc(-c5ccc(N(c6ccccc6)c6ccccc6)cc5)cc4)cc3)cc2)c2ccc(-c3ccc(N(c4ccccc4)c4ccc(-c5ccc(N(c6ccccc6)c6ccccc6)cc5)cc4)cc3)cc2)c1 [Compound 4, N,N-bis[4′-(N′-phenyl-N′-4′-diphenylaminobiphenyl-4-yl)biphenyl-4-yl]-3-(pentamethyldisiloxan-1-yl)aniline] | – | – | 100 µM (≈ 136 µg/mL) | – | 363 nm | 2.83×10^4 | 413 nm | –
Cc1cccc(N(c2ccc(-c3ccc(N(c4ccccc4)c4ccc(-c5ccc(N(c6ccccc6)c6ccc(-c7ccc(N(c8cccc(C)c8)c8cccc(C)c8)cc7)cc6)cc5)cc4)cc3)cc2)c2cccc(C)c2)c1 [Compound 6, reference compound] | – | – | – | – | – | – | – | not dissolved at all
